# Peptide text beside a SMILES is read from it.
# Tests used:
# αIIb TM domain = target: T1, αIIb TM domain (Homo sapiens, UniProt P08514); experiment: DN-TOXCAT heterodimerization; format: cell-based; conditions: coexpressed in bacterial membranes
# T1 construct: expressed in transfected cells; host or cells: E. coli MM39, pDNToxR-Duet
# Experimental: Both the affinity and specificity of the membrane protein-binding peptides for their targets when coexpressed in bacterial membranes were assessed with a DN-“TOXCAT” assay (FIGS. 3a-3c). In TOXCAT, a TM sequence of interest is fused to a ToxR protein (TM-ToxR) that binds to the ctx promoter as a dimer, which induces expression of chloramphenicol acetyltransferase (CAT) (W. P. Russ, D. M. Engelman, Proc. Natl. Acad. Sci. U.S.A. 96, 863 (1999); D. Langosch, B. Brosig, H. Kolmar, H. J. Fritz, J. Mol. Biol. 263, 525 (1996)). In the DN assay, the TM1-ToxR fusion protein is coexpressed with a second fusion protein (TM2-ToxR*) containing a nonfunctional mutant of the ToxR domain. TM-driven dimerization leads to a ToxR-ToxR* dimer that is unable to bind the ctx promoter or to induce CAT synthesis (FIG. 3a). The resulting decrease in CAT activity can be used to monitor the formation of a heterodimeric TM complex. […]
# Mutants were generated using the QuikChange site-directed mutagenesis kit (Stratagene). […] In order to quantify the effects of mutations to anti-αIIb on the change in heterodimerization relative to wild-type anti-αIIb, a disruption index (or % disruption of heterodimerization) was calculated from the data as follows: […]
# αIIbβ3 = target: T2, αIIbβ3 (Homo sapiens, UniProt P08514); experiment: FACS analysis of FITC-fibrinogen binding to platelets; format: cell-based
# T2 construct: trapped from a suspension of gel filtered human platelets or CHO cells; endogenous in cells; host or cells: gel-filtered human platelets
# Experimental: Freshly isolated platelets were added to 200 μg/ml FITC-conjugated fibrinogen, then incubated with 20 μM ADP or 2 μM of the anti-αIIb polypeptide in the presence or in the absence of 5 mM EDTA for 3 min at room temperature. After incubation, the platelets were fixed with 0.37% formalin in PBS buffer for 10 min, then washed and examined by FACS analysis as previously reported. See Ulmschneider M B et al. Proteins: Struct. Funct. Bioinformat. 59, 252-265 (2005). The polypeptide was added from a DMSO solution such that the final concentration of DMSO was no greater than 0.5%. All controls also had 0.5% DMSO in the buffer.
# [1] = target: T3, CHO cells expressing αIIbβ3 (Homo sapiens, UniProt P08514); experiment: Force spectroscopy (laser tweezers), CHO cells and fibrinogen-coated beads; format: cell-based, Chinese hamster; conditions: 0.5 μM polypeptide
# T3 construct: expressed in transfected cells; host or cells: CHO cells
# Source text: Litvinov R I et al. Proc. Natl. Acad. Sci. USA. 99, 7426-31 (2002). Recombinant human OPN, prepared as previously described (Bennett J S et al. J. Biol. Chem. 272, 8137-40 (1997)) or purified human fibrinogen was covalently bound to 0.93 μm carboxylate-modified latex beads. Individual cells, trapped from a suspension of gel filtered human platelets or CHO cells, were manually attached to 5 μm diameter silica pedestals coated with polylysine. An OPN- or fibrinogen-coated bead, trapped by the laser light, was then brought into proximity of an immobilized cell, oscillated at 50 Hz, and then brought into repeated intermittent contact with the cell by micromanipulation. Data collection was initiated at the first contact between the bead and the cell. Rupture forces following repeated contacts were collected for periods of several seconds to one minute. Individual forces measured during each contact-detachment cycle were collected into 10 pN-wide bins. The number of events in each bin was then plotted against the average force for that bin after normalizing for the total number of interaction cycles. Thus, the percentage of events in a particular force range (bin) represents the probability of rupture events at that tension. […] Therefore, rupture forces in this range were not considered when the data were analyzed. […]
# T2 sequence (P08514 891-1039 limits assumed): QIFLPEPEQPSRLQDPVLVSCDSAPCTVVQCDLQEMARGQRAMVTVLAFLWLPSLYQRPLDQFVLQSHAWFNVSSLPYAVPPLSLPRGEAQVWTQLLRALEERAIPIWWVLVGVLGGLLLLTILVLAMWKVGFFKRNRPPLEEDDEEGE
# T2 sequence (P08514 32-887 partner limits assumed): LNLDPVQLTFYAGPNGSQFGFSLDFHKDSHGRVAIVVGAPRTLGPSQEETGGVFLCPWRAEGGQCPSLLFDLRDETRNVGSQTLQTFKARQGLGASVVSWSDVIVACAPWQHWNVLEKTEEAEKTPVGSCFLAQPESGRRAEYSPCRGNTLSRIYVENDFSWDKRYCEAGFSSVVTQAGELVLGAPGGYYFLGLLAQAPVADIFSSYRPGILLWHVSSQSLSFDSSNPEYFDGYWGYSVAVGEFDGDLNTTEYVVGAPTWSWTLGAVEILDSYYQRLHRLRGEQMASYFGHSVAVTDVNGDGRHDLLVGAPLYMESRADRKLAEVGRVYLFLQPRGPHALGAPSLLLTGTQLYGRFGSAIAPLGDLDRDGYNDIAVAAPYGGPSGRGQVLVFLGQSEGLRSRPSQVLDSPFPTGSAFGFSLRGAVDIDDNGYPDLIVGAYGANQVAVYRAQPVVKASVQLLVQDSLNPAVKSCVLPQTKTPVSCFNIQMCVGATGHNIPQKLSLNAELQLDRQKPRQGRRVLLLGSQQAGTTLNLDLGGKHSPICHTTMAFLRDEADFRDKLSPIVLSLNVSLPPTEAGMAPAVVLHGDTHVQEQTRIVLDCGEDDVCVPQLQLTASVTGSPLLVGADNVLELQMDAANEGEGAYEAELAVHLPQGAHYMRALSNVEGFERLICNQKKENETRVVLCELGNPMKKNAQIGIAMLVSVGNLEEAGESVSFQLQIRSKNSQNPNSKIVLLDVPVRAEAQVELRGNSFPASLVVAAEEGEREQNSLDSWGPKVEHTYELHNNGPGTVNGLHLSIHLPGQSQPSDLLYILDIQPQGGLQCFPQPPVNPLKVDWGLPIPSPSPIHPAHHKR
# T2 sequence (P05106 27-788 partner): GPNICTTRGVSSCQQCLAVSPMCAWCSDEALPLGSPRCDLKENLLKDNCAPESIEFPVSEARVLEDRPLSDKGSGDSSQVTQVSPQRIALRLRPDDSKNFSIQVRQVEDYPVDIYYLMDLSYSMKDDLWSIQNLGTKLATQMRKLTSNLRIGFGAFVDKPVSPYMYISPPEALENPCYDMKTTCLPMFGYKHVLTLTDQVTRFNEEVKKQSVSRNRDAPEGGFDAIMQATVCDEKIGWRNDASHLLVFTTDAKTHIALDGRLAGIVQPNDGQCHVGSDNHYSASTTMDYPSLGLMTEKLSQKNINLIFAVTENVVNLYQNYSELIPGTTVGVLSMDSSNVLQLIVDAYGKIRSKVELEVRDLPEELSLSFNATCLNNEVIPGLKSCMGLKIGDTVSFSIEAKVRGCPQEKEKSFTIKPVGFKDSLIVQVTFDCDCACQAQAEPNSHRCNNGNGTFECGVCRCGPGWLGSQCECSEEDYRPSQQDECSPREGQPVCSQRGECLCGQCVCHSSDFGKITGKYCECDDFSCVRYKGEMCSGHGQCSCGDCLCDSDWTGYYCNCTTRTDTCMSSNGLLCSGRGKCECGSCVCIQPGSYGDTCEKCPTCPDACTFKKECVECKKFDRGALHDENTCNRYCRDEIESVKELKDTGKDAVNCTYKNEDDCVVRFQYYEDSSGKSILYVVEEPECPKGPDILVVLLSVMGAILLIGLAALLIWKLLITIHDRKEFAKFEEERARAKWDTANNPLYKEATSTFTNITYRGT
# T3 sequence (P08514 891-1039 limits assumed): as the sequence (P08514 891-1039 limits assumed) above
# T3 sequence (P08514 32-887 partner limits assumed): as the sequence (P08514 32-887 partner limits assumed) above
# T3 sequence (P05106 27-788 partner): as the sequence (P05106 27-788 partner) above
# T1 sequence (P08514 with tags, fused parts or gaps limits assumed): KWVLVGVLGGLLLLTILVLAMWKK
smiles,measurement,setting,value
CC[C@H](C)[C@H](NC(=O)[C@H](Cc1ccccc1)NC(=O)[C@H](Cc1ccccc1)NC(=O)[C@@H]1CCCN1C(=O)[C@H](CC(C)C)NC(=O)[C@H](CC(C)C)NC(=O)[C@H](CCSC)NC(=O)[C@@H](NC(=O)[C@H](Cc1ccc(O)cc1)NC(=O)[C@H](C)NC(=O)[C@H](CCCCN)NC(=O)[C@@H](N)CCCCN)C(C)C)C(=O)NCC(=O)N[C@@H](CC(C)C)C(=O)N[C@@H](CC(C)C)C(=O)N[C@@H](CC(C)C)C(=O)NCC(=O)N[C@@H](CC(C)C)C(=O)N[C@H](C(=O)N[C@@H](Cc1ccccc1)C(=O)NCC(=O)NCC(=O)N[C@@H](C)C(=O)N[C@@H](Cc1ccccc1)C(=O)N[C@@H](Cc1c[nH]c2ccccc12)C(=O)NCC(=O)N1CCC[C@H]1C(=O)N[C@@H](C)C(=O)N[C@@H](CCCNC(=N)N)C(=O)N[C@@H](Cc1c[nH]cn1)C(=O)N[C@@H](CC(C)C)C(=O)N[C@@H](CCCCN)C(=O)N[C@@H](CCCCN)C(N)=O)[C@@H](C)CC [anti-αIIb] (H-KKAYVMLLPFFIGLLLGLIFGGAFWGPARHLKK-NH2; N-terminus assumed),CAT signal of anti-αIIb-ToxR with αIIb as the DN partner,αIIb TM domain,strongly attenuated
same,FITC-labeled fibrinogen bound by platelets,"αIIbβ3; 2.0 μM polypeptide, compared with 20 μM ADP",comparable amounts
same,induced fibrinogen binding in the presence of EDTA,αIIbβ3; 5 mM EDTA,prevented
same,rupture force between CHO cells expressing αIIbβ3 and fibrinogen-coated beads,[1],peak of rupture force identical to that seen when platelets were incubated with ADP
same,rupture force peak after pre-incubation of CHO cells with abciximab,[1]; abciximab 200 μg/ml,not present

# Reference: US8349791B2, “Polypeptides that bind membrane proteins” (The Trustees of the University of Pennsylvania, priority 2006, dated 2013)
